This is an account of results in patent US20130072415A1, “DETERGENT COMPOSITIONS COMPRISING […] BLEND RATIOS of ISOPRENOID-BASED SURFACTANTS” (The Procter & Gamble Company, priority 2011, published 2013).

This data set can be described thus: Dynamic Interfacial Tension (DIFT) analysis, ascending canola oil drop in aqueous detergent phase. The format is physicochemical. The following applies: 100 ppm surfactant, 34 ppm Calcium/Magnesium water hardness (3:1), 22° C., pH 8-8.5. As to the method:
The surfactant systems in Table 3 are analyzed via DIFT method. Ingredients listed are in ppm concentration as would be common in a detergent wash water solution. Analysis conditions are in water of 103 ppm Calcium/Magnesium water hardness level (3:1 Calcium:Magnesium), 21° C., pH 8-8.5. • Formula E contains a commercial branched Neodol® 67 AS surfactant. • Formula F contains 90A:10B AS of the present invention substituted for branched Neodol® 67 AS surfactant. • Formulas G and H are common detergent surfactant mixtures containing no branched alkyl sulfate surfactants.
The surfactant systems in Table 5 are analyzed via DIFT method. Ingredients listed are in ppm concentration as would be common in a detergent wash water solution. Analysis conditions are in water of 34 ppm Calcium/Magnesium water hardness level (3:1 Calcium:Magnesium), 22° C., pH 8-8.5.
Method: Dynamic Interfacial Tension Analysis. Dynamic Interfacial Tension (DIFT) analysis is performed on a Krüss® DVT30 Drop Volume Tensiometer (Krüss USA, Charlotte, N.C.). The instrument is configured to measure the interfacial tension (IFT) of an ascending oil drop in aqueous detergent (surfactant) phase. The oil used is canola oil (Crisco Pure Canola Oil manufactured by The J.M. Smucker Company). The aqueous detergent and oil phases are temperature controlled at 22° C. (+/−1° C.), via a recirculating water temperature controller attached to the tensiometer. A dynamic interfacial tension curve is generated by dispensing the oil drops into the aqueous detergent phase from an ascending capillary with an internal diameter of 0.2540 mm, over a range of flow rates and measuring the interfacial tension at each flow rate. Data is generated at oil dispensing flow rates of 500 uL/min to 1 uL/min with 2 flow rates per decade on a logarithmic scale (7 flow rates measured in this instance). Interfacial tension is measured on three oil drops per flow rate and then averaged. Interfacial tension is reported in units of mN/m. Surface age of the oil drops at each flow rate is also recorded and plots can be generated either of interfacial tension (y-axis) versus oil flow rate (x-axis) or interfacial tension (y-axis) versus oil drop surface age (x-axis). […] Example of analysis of a 100 ppm surfactant concentration, with water hardness (3:1 Ca:Mg) of 103 ppm, 22° C., pH 8: Density settings for 22° C. are set at 0.916 g/ml for Canola Oil and 0.998 g/ml for aqueous surfactant phase (assumed to be the same as water since dilute solution). To a 100 ml volumetric flask is added 1.00 mL of 1% (wt/wt) Surfactant solution in deionized water and the volumetric is then filled to the mark with […] 3:1 CaCl2:MgCl2 solution and mixed well. The solution is transferred to a beaker and the pH adjusted to 8 by addition of a few drops of 0.1N NaOH or […]. The solution is then loaded into the tensiometer measurement cell and analyzed. Total time from addition of hardness to surfactant and start of analysis is less than 5 minutes.

Regarding `CCC(CCCC(C)CCCC(C)C)CCOS(=O)(=O)[O-].[Na+]` (stereo not drawn) [B AS, sodium salt of 3-ethyl-7,11-dimethyldodecan-1-ol sulfate], the “IFT @ 1 uL/min Oil Flowrate” value was determined as 0.35 mN/m, the “IFT @ 10 uL/min Oil Flowrate” value is listed as 1.6 mN/m and the “IFT @ 99 uL/min Oil Flowrate” value is recorded as 6.14 mN/m.
For the compound `CC(C)CCCC(C)CCCC(C)CCCOS(=O)(=O)[O-].[Na+]` (stereo not drawn) [A AS, sodium salt of 4,8,12-trimethyltridecan-1-ol sulfate], the “IFT @ 1 uL/min Oil Flowrate” value is listed as 0.17 mN/m, the “IFT @ 10 uL/min Oil Flowrate” value worked out at 0.88 mN/m and the “IFT @ 99 uL/min Oil Flowrate” value is on record as 4.83 mN/m.
